Values quoted from earlier work in patent US20220362242A1, “METHODS AND COMPOSITIONS FOR TREATING MOVEMENT DISORDERS” (Edgewise Therapeutics, Inc., priority 2018, published 2022).

Tested on: embryos from zebrafish model of DMD
Settings: control vs BTS treated muscles, FIG. 2

## Cc1ccc(S(=O)(=O)NCc2ccccc2)cc1 [BTS, N-benzyl-p-tolyl-sulfonamide]
  protection of muscles from pathological muscle derangement: protect muscles from pathological muscle derangement
